Reference: ChEMBL document CHEMBL5608141, “Identification of compartment-specific drug sensitivities in CRC organoid-stroma co-cultures” (2024)

How the values were obtained:
Assay type in all cases: functional, Homo sapiens
Set-up in all cases: dose or concentration left out as unconfirmed
Colon cancer organoid [1] = assay: Identification of compartment-specific drug sensitivities in O06 CRC organoid-stroma F06 CAF co-cultures. Organoid is transduced with Lucferase2-P2A-EGFP lentivirus, fibroblast with Renilla-dsRed lentivirus. Dual-Glo Luciferase assay is used to report viability data.
Colon cancer organoid [2] = assay: Identification of compartment-specific drug sensitivities in O20 CRC organoid-stroma F20 CAF co-cultures. Organoid is transduced with Lucferase2-P2A-EGFP lentivirus, fibroblast with Renilla-dsRed lentivirus. Dual-Glo Luciferase assay is used to report viability data.
Colon cancer organoid [3] = assay: Identification of compartment-specific drug sensitivities in O14 CRC organoid-stroma F14 CAF co-cultures. Organoid is transduced with Lucferase2-P2A-EGFP lentivirus, fibroblast with Renilla-dsRed lentivirus. Dual-Glo Luciferase assay is used to report viability data.
[4] = Transduced with Lucferase2-P2A-EGFP lentivirus
[5] = Transduced with Renilla-dsRed lentivirus

| Structure (SMILES) | Cell Viability (Colon cancer organoid [1]; [4]) [%] | Cell Viability (Colon cancer organoid [1]; [5]) [%] | Cell Viability (Colon cancer organoid [2]; [4]) [%] | Cell Viability (Colon cancer organoid [2]; [5]) [%] | Cell Viability (Colon cancer organoid [3]; [4]) [%] | Cell Viability (Colon cancer organoid [3]; [5]) [%] |
| --- | --- | --- | --- | --- | --- | --- |
| Cc1c(NC(=O)c2ccc(C(C)(C)C)cc2)cccc1-c1cn(C)c(=O)c(Nc2ccc(C(=O)N3CCOCC3)cc2)n1 | 105.279 | 113.435 | 110.349 | 88.3582 | 92.1091 | 94.7887 |
| Cc1sc2c(c1C)C(c1ccc(Cl)cc1)=N[C@@H](CC(=O)OC(C)(C)C)c1nnc(C)n1-2 | 24.0633 | 301.325 | 11.1793 | 145.881 | 31.858 | 201.171 |
| COc1cc2c(cc1-c1c(C)noc1C)ncc1[nH]c(=O)n([C@H](C)c3ccccn3)c12 | 43.5488 | 325.273 | 26.1265 | 172.215 | 55.7493 | 184.963 |
| CCCc1cc(C)[nH]c(=O)c1CNC(=O)c1cc(-c2ccnc(N3CCN(C)CC3)c2)cc2c1cnn2C(C)C | 75.6598 | 125.188 | 56.2508 | 146.305 | 87.4027 | 100.827 |
| CCCCNc1ncc(-c2ccc(CN3CCOCC3)cn2)c(N[C@H]2CC[C@H](O)CC2)n1 | 22.8495 | 123.664 | 8.867 | 223.767 | 12.9881 | 77.7799 |
| CC(C)NC(=O)N1CC[C@H](NC2=Nc3cc(F)ccc3N(CC(F)F)c3ccc(Cl)cc32)C1 | 50.3719 | 97.5535 | 55.1322 | 142.836 | 92.2307 | 99.3787 |
| CN1CCN(c2ccc(-c3cccc(CN4CCOCC4)c3)cc2NC(=O)c2c[nH]c(=O)cc2C(F)(F)F)CC1 | 91.1397 | 122.014 | 82.8822 | 116.555 | 95.9628 | 85.2187 |
| CNCCN1CCC(OCc2ccccc2)CC1 | 118.085 | 144.179 | 15.2261 | 211.667 | 40.9856 | 114.707 |
| CCc1cc2cc(NS(=O)(=O)c3ccc(C#N)cc3)ccc2n(CC)c1=O | 88.2132 | 102.933 | 196.577 | 99.0217 | 120.494 | 98.1699 |
| Cn1c(=O)[nH]c2cc(N3C(=O)c4cccc5c(CCCO)ccc(c45)C3=O)ccc21 | 115.119 | 110.623 | 127.541 | 89.8045 | 148.781 | 92.4291 |
| CN(C)[C@H]1CN(C2CCc3cccc(F)c32)C[C@@H]1c1ccc(N2CCN(S(C)(=O)=O)CC2)cc1 (some centres not stated) | 82.1891 | 127.07 | 31.9931 | 145.189 | 77.8807 | 109.764 |
| CC1(C)C(N)=Nc2cc(OCCCN3Cc4ccc(OCCc5cn(CC(=O)N6CCC(CCN7CCCC7)CC6)nn5)cc4C3)c(OCC3CC3)cc21 | 85.8179 | 109.54 | 95.5615 | 161.052 | 112.775 | 105.217 |
| CC1(C)C(N)=Nc2cc(OCCCCN3Cc4ccc(OCc5cn(CC(=O)N6CCC(CCN7CCCC7)CC6)nn5)cc4C3)c(OCC3CC3)cc21 | 65.2251 | 114.368 | 70.7317 | 125.652 | 112.762 | 94.6071 |
| CN(C)C(=O)Cn1cc(-c2ccc(-c3cncc4ccccc34)cc2)cn1 | 83.3121 | 47.4852 | 98.3492 | 25.8647 | 88.4928 | 18.4119 |
| CC(C)(O)[C@H](F)CN1Cc2cc(NC(=O)c3cnn4cccnc34)c(N3CCOCC3)cc2C1=O | 120.796 | 89.8431 | 123.644 | 88.3121 | 105.194 | 83.4987 |
| CN1CCN(Cc2cc(NC(=O)c3ccc4c(c3)CN(c3ccccc3)CC4)cc(C(F)(F)F)c2)CC1 | 105.854 | 147.303 | 90.0307 | 84.0381 | 122.837 | 90.754 |

| Structure (SMILES) | Cell Viability (Colon cancer organoid [1]; [4]) [%] | Cell Viability (Colon cancer organoid [1]; [5]) [%] | Cell Viability (Colon cancer organoid [2]; [4]) [%] | Cell Viability (Colon cancer organoid [2]; [5]) [%] | Cell Viability (Colon cancer organoid [3]; [4]) [%] | Cell Viability (Colon cancer organoid [3]; [5]) [%] |
| --- | --- | --- | --- | --- | --- | --- |
| Cc1cn(-c2cc(NC(=O)c3ccc4c(c3)CN(c3cncnc3)C[C@@H]4C)cc(C(F)(F)F)c2)cn1 | 82.9908 | 122.253 | 88.3808 | 107.854 | 141.09 | 97.6954 |
| Cc1cccc(-c2cnc3occ(-c4ccc(C(=O)O)c(C5CCCC5)c4)c3c2)c1 | 94.5335 | 126.561 | 88.6258 | 133.429 | 146.067 | 87.0815 |
| O=C(NCCCN1CCOC1=O)c1cnc(NCc2cc(Br)ccc2Br)nc1NC1CCCC1 | 72.4903 | 99.9468 | 103.947 | 94.0994 | 120.927 | 72.8786 |
| COc1ccccc1-c1cc(N2CCN(C(=O)OC(C)(C)C)CC2)c(N)nn1 | 99.4085 | 102.712 | 123.55 | 160.936 | 120.209 | 94.5585 |
| O=C(O)c1ccc(-c2coc3ncc(-c4ccccc4)cc23)cc1Cl | 84.9927 | 102.883 | 189.357 | 126.188 | 182.141 | 68.2046 |
| CN(C(=O)c1cnn2cccnc12)c1cc2c(cc1N1CCOCC1)C(=O)N(C[C@@H](F)C(C)(C)O)C2 | 93.6773 | 65.3185 | 85.5909 | 89.8275 | 98.5166 | 101.353 |
| c1ccc(C2CCN(c3cnc4c(N5CCOCC5)nccn34)CC2)cc1 | 25.484 | 144.176 | 90.2822 | 108.246 | 130.379 | 77.7891 |
| COc1cc(Nc2nc(C)cc(-c3cnn4nc(OC)ccc34)n2)cc(C(F)(F)F)c1 | 17.5131 | 98.9895 | 136.021 | 99.6244 | 120.94 | 74.993 |
| CN(C)C(=O)N1CC[C@H](NC2=Nc3cc(F)ccc3N(CC(F)F)c3ccc(Cl)cc32)C1 | 22.5333 | 79.8107 | 71.357 | 98.2431 | 119.43 | 91.6025 |
| CCn1c(-c2nc3cc(C(=O)N4CCCC(N)C4)ccc3n2C)cc2ccccc21.Cl (configuration not stated) | 115.054 | 117.733 | 133.825 | 136.72 | 132.628 | 112.241 |
| CCOc1ccc(S(=O)(=O)Nc2ccc(Cl)cc2C#Cc2cnc(C(=O)[O-])cc2OC)c2ncccc12.[K+] | 117.764 | 113.31 | 110.493 | 117.362 | 103.028 | 89.48 |
| Cc1cc(CN)cc(C)c1-c1ncn(C)c1-c1ccnc2cc(F)ccc12.Cl | 105.057 | 123.721 | 144.981 | 87.6481 | 138.136 | 105.376 |
| CC1=CC(C)=[N+]2C1=C(CCCCc1cn(CC(=O)N3CCc4nc(NC(=O)[C@H]5CCN(C#N)C5)sc4C3)nn1)c1c(C)cc(C)n1[B-]2(F)F | 125.029 | 111.523 | 77.3724 | 101.216 | 84.8013 | 97.3387 |
| COc1cc(OC)cc(-c2noc(N3CCN(C)C4(CCN(c5ccccc5)CC4)C3)n2)c1 | 67.7845 | 115.277 | 90.427 | 110.491 | 135.567 | 106.85 |
| COc1ccccc1C(=O)Nc1cc2c(cc1N1CCNCC1C)n(C)c(=O)n2C (configuration not stated) | 112.155 | 138.916 | 131.273 | 107.173 | 118.564 | 101.199 |
| COc1cccc2c1C(=O)c1c(O)c3c(c(O)c1C2=O)CC(O)(C(=O)CO)CC3OC1CC(N)C(O)C(C)O1.Cl (configuration not stated) | 14.9439 | 235.56 | 5.3877 | 237.178 | 3.454 | 89.9373 |
